From ChEMBL document CHEMBL5321260, “Pseudo-Enantiomeric Paraphaeolactones and Their Biosynthetic Derivatives from Paraphaeosphaeria sp. KT4192: A Proposition of a Favorskii Rearrangement for Their Biosynthesis” (J Nat Prod, 2023)
Activity calls are given as the source filed them. No cut-off for these calls is given here.

Key:
COLO 201 = assay: Cytotoxicity against human COLO201 cells assessed as reduction in cell proliferation measured after 24 hrs by WST-1 assay; format: functional, cell-based; details: COLO 201, 24 h
Bipolaris oryzae = assay: Antifungal activity against Bipolaris oryzae incubated for 5 days; format: functional, organism-based; details: time 5.0 day

| SMILES | IC50 (COLO 201) [µM] | Activity (Bipolaris oryzae) |
| --- | --- | --- |
| C[C@@H]1C=C[C@@]2(O)C[C@]3(O)C(=O)O[C@H]2[C@H]13 | 300 | inactive |
| C=C1OC(=O)[C@]23[C@@H]1O[C@H](CC(=O)[C@@H]2O)[C@H]3C | 390 | inactive |
| CC(=O)[C@@H](O)c1c(C)ccc2c1O[C@@]1(O2)[C@@]2(O)C=C[C@@H](C)[C@@H]3[C@H]2OC(=O)[C@@]31O | 200 | inactive |
| CC(=O)[C@@H](O)c1c(C)ccc2c1O[C@]1(O2)[C@@]2(O)C=C[C@@H](C)[C@@H]3[C@H]2OC(=O)[C@@]31O | 260 | inactive |
| C[C@@H]1C=C[C@]2(O)C[C@@]3(O)C(=O)O[C@@H]2[C@@H]13 | > 500 | inactive |
| CC(=O)C(O)c1cc(O)ccc1C (stereo not drawn) | 340 | inactive |
| Cc1ccc(O)cc1C(=O)[C@H](C)O | 290 | inactive |
| CC(=O)[C@H](O)[C@H]1[C@H](C)C=CC(=O)[C@@H]1O | > 500 | inactive |
| COC(=O)[C@]12[C@@H](C(C)=O)O[C@H](CC(=O)[C@@H]1O)[C@H]2C | 200 | inactive |
